Source: ChEMBL document CHEMBL5380844, “Discovery of a Novel, Potent, Orally Active, and Safe Inhibitor Targeting Human Mitochondrial RNA Polymerase” (J Med Chem, 2023)
pIC50: −log10 of the molar value. Values after ≈ are worked out from the molar mass of the structure shown. Active and inactive are the calls of the source. The rule behind the calls is not given here.

Columns and labels:
[1] = system: A2780; assay: Antitumor activity against human A2780 cells xenografted in BALB/c nude mouse model assessed as reduction in COX1 level at 100 mg/kg, po by immunoblotting analysis; assay type: functional, organism-based
[2] = system: A2780; assay: Inhibition of colony formation in human A2780 cells at upto 500 nM incubated for 14 days by crystal violet staining based analysis; assay type: functional, cell-based; details: time 14.0 day
[3] = system: MDA-MB-231; assay: Antiproliferative activity against human MDA-MB-231 cells incubated for 168 hrs by SRB method; assay type: functional, cell-based; details: MDA-MB-231, 168 h
[4] = system: A2780; assay: Inhibition of MT-ND5 expression in human A2780 cells at 100 nM incubated for 12 hrs by RNA sequencing analysis; assay type: functional, cell-based
[5] = system: A2780; assay: Effect on SDHB level in human A2780 cells at upto 500 nM by Western blot analysis; assay type: functional, cell-based
[6] = system: A2780; assay: Induction of cell cycle arrest in human A2780 cells assessed as accumulation of cells at G1 phase at 100 nM measured after 96 hrs by PI staining based flow cytometry analysis (reference value: 80.81%); assay type: functional
[7] = target: T1, Cytochrome P450 3A4 (Homo sapiens, UniProt P08684); assay: Inhibition of […] (unknown origin) using midazolam as substrate in presence of NADPH by LC/MS/MS analysis; assay type: ADME
T1 sequence (P08684 whole entry): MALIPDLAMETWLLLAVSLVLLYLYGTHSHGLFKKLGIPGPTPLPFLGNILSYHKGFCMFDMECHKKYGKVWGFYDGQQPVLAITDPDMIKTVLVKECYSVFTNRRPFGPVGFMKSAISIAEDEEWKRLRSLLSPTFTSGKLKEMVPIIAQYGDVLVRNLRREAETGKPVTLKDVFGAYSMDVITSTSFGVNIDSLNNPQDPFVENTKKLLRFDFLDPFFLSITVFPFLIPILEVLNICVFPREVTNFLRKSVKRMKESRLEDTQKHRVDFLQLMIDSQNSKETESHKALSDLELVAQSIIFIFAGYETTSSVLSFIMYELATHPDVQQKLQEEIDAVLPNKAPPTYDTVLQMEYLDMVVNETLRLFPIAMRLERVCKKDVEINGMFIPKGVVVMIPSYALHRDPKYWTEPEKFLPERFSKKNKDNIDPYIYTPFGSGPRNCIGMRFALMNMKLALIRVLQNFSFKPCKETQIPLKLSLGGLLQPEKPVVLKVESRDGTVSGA

[8] = system: MDA-MB-468; assay: Antiproliferative activity against human MDA-MB-468 cells incubated for 168 hrs by SRB method; assay type: functional, cell-based; details: MDA-MB-468, 168 h
[9] = system: A2780; assay: Effect on POLRMT mRNA level in human A2780 cells by RT-qPCR analysis; assay type: functional, cell-based
[10] = system: A2780; assay: Effect on 28S mRNA level in human A2780 cells by RT-qPCR analysis; assay type: functional, cell-based
[11] = system: A2780; assay: Induction of mitochondrial membrane potential changes in human A2780 cells assessed as increase in Q3 phase at 0 to 5 uM measured after 96 hrs by flow cytometry analysis; assay type: functional, cell-based; details: dose 0-5 µM
[12] = system: A2780; assay: Induction of apoptosis in human A2780 cells assessed as viable cells at 50 nM incubated for 96 hrs by Annexin-V/FITC and PI staining based flow cytometry analysis (reference value: 89.2%); assay type: functional; details: read-out: Activity
[13] = system: A2780; assay: Inhibition of mitochondrial transcript in human A2780 cells assessed as decrease in ND1 expression by RT-qPCR analysis; assay type: functional, cell-based
[14] = system: A2780; assay: Inhibition of MT-ATP6 expression in human A2780 cells at 100 nM incubated for 12 hrs by RNA sequencing analysis; assay type: functional, cell-based
[15] = system: A2780; assay: Inhibition of MT-CO2 expression in human A2780 cells at 100 nM incubated for 12 hrs by RNA sequencing analysis; assay type: functional, cell-based
[16] = system: A2780; assay: Induction of cell cycle arrest in human A2780 cells assessed as accumulation of cells at G2 phase at 200 nM measured after 96 hrs by PI staining based flow cytometry analysis (reference value: 4.49%); assay type: functional
[17] = system: MIA PaCa-2; assay: Antiproliferative activity against human MIA PaCa-2 cells incubated for 168 hrs by SRB method; assay type: functional, cell-based; details: MIA PaCa-2, 168 h
[18] = Solubility in PBS at pH 7.4; assay type: physicochemical
[19] = system: IMR-90; assay: Antiproliferative activity against human IMR-90 cells incubated for 168 hrs by SRB method; assay type: functional, cell-based; details: IMR-90, 168 h
[20] = Apparent permeability across basolateral side to apical side in human Caco-2 cells at 3 uM incubated for 2 hrs by LC-MS/MS analysis; assay type: ADME, cell-based
[21] = Clearance in ICR mouse at 1 mg/kg, iv measured upto 24 hrs by LC-MS/MS analysis; assay type: ADME, organism-based; details: in vivo
[22] = system: A2780; assay: Induction of cell cycle arrest in human A2780 cells assessed as accumulation of cells at S phase at 100 nM measured after 96 hrs by PI staining based flow cytometry analysis (reference value: 14.7%); assay type: functional
[23] = system: A2780; assay: Antitumor activity against human A2780 cells xenografted in BALB/c nude mouse model assessed as reduction in mitochondrial DNA transcript level at 50 to 100 mg/kg, po administered daily; assay type: functional, organism-based; details: dose 50-100 mg/kg
[24] = system: A2780; assay: Antitumor activity against human A2780 cells xenografted in BALB/c nude mouse model assessed as decrease in tumor volume administered po daily and measured after 27 days; assay type: functional, organism-based; details: dose 50-100 mg/kg, time 27.0 day
[25] = Acute toxicity in Balb/c mouse assessed as effect on liver 100 mg/kg measured after 27 days by H and E staining based analysis; assay type: organism-based; details: in vivo, 648 h, time 27 day
[26] = system: A2780; assay: Induction of apoptosis in human A2780 cells assessed as increase in cleaved PARP cleavage level at upto 500 nM by immunoblot analysis; assay type: functional, cell-based
[27] = system: A2780; assay: Induction of apoptosis in human A2780 cells assessed as late apoptotic cells at 200 nM incubated for 96 hrs by Annexin-V/FITC and PI staining based flow cytometry analysis (reference value: 3.79%); assay type: functional
[28] = target: Cytochrome P450 2C19 (Homo sapiens, UniProt P33261); assay: Inhibition of CYP2C19 (unknown origin) using S-mephenytoin as substrate in presence of NADPH by LC/MS/MS analysis; assay type: ADME
Sequence of Cytochrome P450 2C19 (P33261 whole entry): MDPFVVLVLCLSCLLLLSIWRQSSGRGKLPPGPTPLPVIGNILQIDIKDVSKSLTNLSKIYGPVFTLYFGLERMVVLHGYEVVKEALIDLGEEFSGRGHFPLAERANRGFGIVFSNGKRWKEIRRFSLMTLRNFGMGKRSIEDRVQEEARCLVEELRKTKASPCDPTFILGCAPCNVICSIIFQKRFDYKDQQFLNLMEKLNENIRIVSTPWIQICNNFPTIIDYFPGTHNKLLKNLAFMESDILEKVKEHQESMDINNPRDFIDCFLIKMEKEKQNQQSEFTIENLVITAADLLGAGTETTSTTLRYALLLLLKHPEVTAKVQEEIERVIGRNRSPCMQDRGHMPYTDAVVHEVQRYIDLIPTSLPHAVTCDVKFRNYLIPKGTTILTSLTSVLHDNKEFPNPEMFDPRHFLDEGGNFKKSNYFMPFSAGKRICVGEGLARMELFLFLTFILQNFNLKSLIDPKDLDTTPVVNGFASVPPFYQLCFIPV

[29] = system: A2780; assay: Effect on ATP5A level in human A2780 cells at upto 500 nM by Western blot analysis; assay type: functional, cell-based
[30] = system: A2780; assay: Inhibition of colony formation in human A2780 cells assessed as decrease in colony quantity at 10 nM incubated for 14 days by crystal violet staining based analysis; assay type: functional, cell-based; details: time 14.0 day
[31] = Toxicity in Balb/c mouse assessed as effect on spleen at 100 mg/kg by H and E staining based analysis; assay type: organism-based; details: in vivo
[32] = system: A2780; assay: Induction of cell cycle arrest in human A2780 cells assessed as accumulation of cells at S phase at 200 nM measured after 96 hrs by PI staining based flow cytometry analysis (reference value: 14.7%); assay type: functional
[33] = Cmax in ICR mouse at 1 mg/kg, iv measured upto 24 hrs by LC-MS/MS analysis; assay type: ADME, organism-based; set-up: time < 24 hrs, dose 1 mg/kg, route iv; details: in vivo
[34] = system: A2780; assay: Inhibition of mitochondrial transcript in human A2780 cells incubated for 12 hrs followed by compound removal and measured after 24 hrs by RT-qPCR analysis; assay type: functional, cell-based
[35] = Toxicity in Balb/c mouse assessed as effect on kidney at 100 mg/kg by H and E staining based analysis; assay type: organism-based; details: in vivo
[36] = system: A2780; assay: Inhibition of colony formation in human A2780 cells assessed as reduction in number of colonies at upto 500 nM incubated for 14 days by crystal violet staining based analysis; assay type: functional, cell-based; details: time 14.0 day
[37] = target: T1, Cytochrome P450 3A4; assay: Inhibition of […] (unknown origin) using testosterone as substrate in presence of NADPH by LC/MS/MS analysis; assay type: ADME
[38] = system: A2780; assay: Induction of intracellular ROS generation in human A2780 cells at upto 500 nM measured after 96 hrs by DCFH-DA staining based immunofluorescence assay; assay type: functional, cell-based
[39] = MRT in ICR mouse at 1 mg/kg, iv measured upto 24 hrs by LC-MS/MS analysis; assay type: ADME, organism-based; details: in vivo
[40] = system: A2780; assay: Induction of intracellular ROS generation in human A2780 cells at 0 to 5 uM by DCFH-DA staining based microscopic analysis; assay type: functional, cell-based; details: dose 0-5 µM

In the case of `Cc1ccc(-c2cc(=O)oc3cc(O[C@H](C)C(=O)N4CC5CCC(C4)N5C)ccc23)c(C)c1`, the Activity [1] was “Active”, the inhibition [2] was “Active” and the pIC50 [3] was < 5.00. The inhibition [4] was “Active”, the Activity [5] was “inactive” and the Activity [6] was 87.12%. For the same molecule, the pIC50 [7] was < 4.40, the pIC50 [8] was 6.88 and the Activity [9] was “inactive”. For the same molecule, the Activity [10] was “inactive”, the Activity [11] was “inactive” and the viability at 0.05 µM [12] was 92.3%. For the same molecule, the inhibition [13] was “Active”, the inhibition [14] was “Active” and the inhibition [15] was “Active”. For the same molecule, the Activity [16] was 3.16%, the pIC50 [17] was 7.06 and the solubility [18] was 226 µg/mL (≈ 506 µM). For the same molecule, the pIC50 [19] was < 4.30, the Papp B→A at 2 h, 3 µM [20] was 8.3 ×10⁻⁶ cm/s and the clearance [21] was 38.2 mL/min/kg. The Activity [22] was 9.15%, the Activity [23] was “Active” and the Activity [24] was “Dose-Dependent Effect”. For the same molecule, the Activity [25] was “Non-Toxic”, the Activity [26] was “inactive” and the Activity [27] was 4.58%. The pIC50 [28] was 4.50, the Activity [29] was “inactive” and the inhibition [30] was “Active”. For the same molecule, the Activity [31] was “Non-Toxic”, the Activity [32] was 9.07% and the Cmax [33] was 364 ng/mL. The inhibition [34] was “inactive”, the Activity [35] was “Non-Toxic” and the inhibition [36] was “Active”. The pIC50 [37] was 4.51, the Activity [38] was “inactive” and the MRT [39] was 2.66 h. The Activity [40] was “inactive”.
